Measured values from PMC13415033, “Pickering Emulsion Stabilized by Chitosan-Modified Saigae Tataricae Cornu Particles for Improving the Oxidative Stability and In Vivo Pharmacokinetics of Acorus tatarinowii Schott Volatile Oil” (Pharmaceuticals, 2026).

Assay: GC-MS analysis of volatile components after light exposure
Format: physicochemical
Settings: after 5 d of light exposure
Protocol: Untreated ATVO, the physical mixture (10 mL ATVO, 10 mL distilled water, and 0.3 g MSTC mixed uniformly with a glass rod), and the MSTC-stabilized PE were each placed into flat weighing bottles (40 × 25 mm). The samples were stored in a light-stability chamber with a light intensity of 4500 ± 500 lx and a controlled temperature of 25 ± 0.5 °C. Aliquots were collected after 1, 3, and 5 days of light exposure. The physical mixture and PE groups were centrifuged (10,000 rpm, 10 min) to achieve phase separation prior to analysis. All assays were performed in triplicate, and the obtained samples were maintained at 4 °C until analyzed.Volatile oil retention rate (%) = Vt/V0 × 100%(2) The volatile components of ATVO were determined by gas chromatography-mass spectrometry (GC-MS) according to a previously reported method. Samples from each treatment group were prepared before analysis. Briefly, 100 μL of each volatile oil sample was transferred into a 10 mL volumetric flask. Then, 100 μL of n-docosane internal standard solution (10 mg·mL^−1) was added. The mixture was diluted to volume with n-hexane. […] It was then vortex-mixed and filtered through a 0.22 μm organic membrane filter. The filtrate was used for GC-MS analysis. […] Relative quantification was performed using n-docosane as the internal standard. […]

- relative content of the component (PE group): well retained
- relative content of the component (free ATVO (O) group implied): decreased to zero
Structure (SMILES): C=C/C(C)=C/CC=C(C)C [003779-61-1, (E)-3,7-dimethylocta-1,3,6-triene]
